Test results taken from patent publication US20050059726A1, “Pyrrolidine-2-ones as factor xa inhibitors” (priority 2001, published 2005).
Counter-ions that a name gives are not always drawn.

Target: human Factor Xa (Homo sapiens, UniProt P00742)
Assay: In vitro assay for inhibition of Factor Xa (2), fluorogenic assay
Type: biochemical
Conditions: substrate Rhodamine 110, bis-(CBZ-glycylglycyl-L-arginine amide 10 μM), Ki calculated from IC50
Method: In Vitro Assay for Inhibition of Factor Xa (2)
All other compounds of the present invention were tested for their Factor Xa inhibitory activity as determined in vitro by their ability to inhibit human Factor Xa in a fluorogenic assay, using Rhodamine 110, bis-(CBZ-glycylglycyl-L-arginine amide as the fluorogenic substrate. Compounds were diluted from a 10 mM stock solution in dimethylsulfoxide at appropriate concentrations. Assay was performed at room temperature using buffer consisting of: 50 mM Tris-HCl, 150 mM NaCl, 5 mM CaCl2, pH 7.4. containing human Factor Xa (final conc. Of 0.0003U.ml−1). Compound and enzyme were preincubated for 15 min prior to addition of the substrate (final conc. of 10 μM). The reaction was stopped after 3 hrs with the addition of H-D-PHE-PRO-ARG-Chloromethylketone. […] To obtain IC50 values the data were analysed using ActivityBase® and XLfit®.
Calculation of Ki values:
Ki=IC50/(1+[Substrate]/Km)
The Ki value for the above assay can be obtained by dividing the IC50 value by 1.6.

Sequence of human Factor Xa (P00742 235-488 limits assumed): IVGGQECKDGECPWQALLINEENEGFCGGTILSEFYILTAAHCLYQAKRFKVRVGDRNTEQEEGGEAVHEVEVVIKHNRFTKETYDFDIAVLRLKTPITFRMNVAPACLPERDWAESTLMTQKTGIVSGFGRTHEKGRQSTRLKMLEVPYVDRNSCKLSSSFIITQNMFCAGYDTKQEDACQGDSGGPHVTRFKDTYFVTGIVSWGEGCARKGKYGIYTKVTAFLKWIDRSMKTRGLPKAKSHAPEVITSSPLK
Sequence of human Factor Xa (P00742 41-179 partner limits assumed): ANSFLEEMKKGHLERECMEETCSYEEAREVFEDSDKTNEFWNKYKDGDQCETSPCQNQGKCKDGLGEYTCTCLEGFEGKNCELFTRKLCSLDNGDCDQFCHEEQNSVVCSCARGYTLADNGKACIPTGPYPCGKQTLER

| SMILES | Ki [nM] |
| --- | --- |
| CS(=O)(=O)c1ccccc1-c1ccc(N2CC[C@H](NS(=O)(=O)c3cc4cc(Cl)ccc4o3)C2=O)c(F)c1 [Example 5, 5-Chloro-N-{(3S)-1-[3-fluoro-2′-(methylsulfonyl)-1,1′-biphenyl-4-yl]-2-oxopyrrolidin-3-yl}-1-benzofuran-2-sulfonamide] | < 10 |
| CS(=O)(=O)c1ccccc1-c1ccc(N2CC[C@H](NS(=O)(=O)c3cccc4cnccc34)C2=O)c(F)c1 [Example 6, N-{(3S)-1-[3-Fluoro-2′-(methylsulfonyl)-1,1′-biphenyl-4-yl]-2-oxopyrrolidin-3-yl}isoquinoline-5-sulfonamide] | < 1000 |
| CS(=O)(=O)c1ccccc1-c1ccc(N2CC[C@H](NS(=O)(=O)/C=C/c3ccc(Cl)cc3)C2=O)c(F)c1 [Example 7, (E)-2-(4-Chlorophenyl)-N-{(3S)-1-[3-fluoro-2′-(methylsulfonyl)-1,1′-biphenyl-4-yl]-2-oxopyrrolidin-3-yl}ethenesulfonamide] | < 10 |
| CS(=O)(=O)c1ccccc1-c1ccc(N2CC[C@H](NS(=O)(=O)c3ccc(-c4ccc(Cl)s4)s3)C2=O)c(F)c1 [Example 8, 5′-Chloro-N-{(3S)-1-[3-fluoro-2′-(methylsulfonyl)-1,1′-biphenyl-4-yl]-2-oxopyrrolidin-3-yl}-2,2′-bithiophene-5-sulfonamide] | < 10 |
| CN(C)c1ccc2cc(S(=O)(=O)N[C@H]3CCN(c4ccc(-c5ccccc5S(C)(=O)=O)cc4F)C3=O)ccc2c1 [Example 9, 6-(Dimethylamino)-N-{(3S)-1-[3-fluoro-2′-(methylsulfonyl)-1,1′-biphenyl-4-yl]-2-oxopyrrolidin-3-yl}naphthalene-2-sulfonamide] | < 1000 |
| CS(=O)(=O)c1ccccc1-c1ccc(N2CC[C@H](NS(=O)(=O)c3cc4ccc(Cl)cc4s3)C2=O)c(F)c1 [Example 11, 6-Chloro-N-{(3S)-1-[3-fluoro-2′-(methylsulfonyl)-1,1′-biphenyl-4-yl]-2-oxopyrrolidin-3-yl}-1-benzothiophene-2-sulfonamide] | < 10 |
| CS(=O)(=O)c1ccccc1-c1ccc(N2CC[C@H](NS(=O)(=O)c3cc4cc(Cl)ccc4s3)C2=O)c(F)c1 [Example 12, 5-Chloro-N-{(3S)-1-[3-fluoro-2′-(methylsulfonyl)-1,1′-biphenyl-4-yl]-2-oxopyrrolidin-3yl}-1-benzothiophene-2-sulfonamide] | < 10 |
| NS(=O)(=O)c1ccccc1-c1ccc(N2CC[C@H](NS(=O)(=O)c3cc4ccc(Cl)cc4s3)C2=O)c(F)c1 [Example 15, N-{(3S)-1-[2′-(Aninosulfonyl)-3-fluoro-1,1′-biphenyl-4-yl]-2-oxopyrrolidin-3-yl}-6-chloro-1-benzothiophene-2-sulfonamide] | < 10 |
| C/C(=C\S(=O)(=O)N[C@H]1CCN(c2ccc(-c3ccccc3S(N)(=O)=O)cc2F)C1=O)c1ccc(Cl)s1 [Example 16, 4′-[(3S)-3-({[(1E)-2-(5-Chlorothien-2-yl)prop-1-enyl]sulfonyl}amino)-2-oxopyrrolidin-1-yl]-3′-fluoro-1,1′-biphenyl-2-sulfonamide] | < 10 |
| O=C1[C@@H](NS(=O)(=O)/C=C/c2ccc(Cl)s2)CCN1c1ccc(-c2ccccc2[N+](=O)[O-])cn1 [Example 17, (E)-2-(5-Chlorothien-2-yl)-N-{(3S)-1-[5-(2-nitrophenyl)pyridin-2-yl]-2-oxopyrrolidin-3-yl}ethenesulfonamide] | < 10 |
| O=C1[C@@H](NS(=O)(=O)/C=C/c2ccc(Cl)s2)CCN1c1ccc(-c2ccccc2[N+](=O)[O-])cc1F [Example 18, (E)-2-(5-Chlorothien-2-yl)-N-[(3S)-1-(3-fluoro-2′-nitro-1,1′-biphenyl-4-yl)-2-oxopyrrolidin-3-yl]ethenesulfonamide] | < 10 |
| O=C1[C@@H](NS(=O)(=O)/C=C/c2ccc(Cl)s2)CCN1c1ccc(-c2ccccc2C(F)(F)F)cn1 [Example 24, (E)-2-(5-Chlorothien-2-yl)-N-((3S)-2-oxo-1-{5-[2-(trifluoromethyl)phenyl]pyridin-2-yl}pyrrolidin-3yl)ethenesulfonamide] | < 10 |
| CN(C)C(=O)c1ccccc1-c1ccc(N2CC[C@H](NS(=O)(=O)/C=C/c3ccc(Cl)s3)C2=O)nc1 [Example 25, 2-{6-[(3S)-3-({[(E)-2-(5-Chlorothien-2-yl)ethenyl]sulfonyl}amino)-2-oxopyrrolidin-1-yl]pyridin-3-yl}-N,N-dimethylbenzamide] | < 20 |
| N#Cc1ccccc1-c1ccc(N2CC[C@H](NS(=O)(=O)/C=C/c3ccc(Cl)s3)C2=O)nc1 [Example 26, (E)-2-(5-Chlorothien-2-yl)-N-{(3S)-1-[5-(2-cyanophenyl)pyridin-2yl]-2-oxopyrrolidin-3-yl}ethenesulfonamide] | < 10 |

The next lines start with the values.

| Ki [nM] | SMILES |
| --- | --- |
| < 10 | CN(C)S(=O)(=O)c1ccccc1-c1ccc(N2CC[C@H](NS(=O)(=O)/C=C/c3ccc(Cl)s3)C2=O)nc1 [Example 28] |
| < 10 | CNS(=O)(=O)c1ccccc1-c1ccc(N2CC[C@H](NS(=O)(=O)/C=C/c3ccc(Cl)s3)C2=O)nc1 [Example 29, 2-{6-[(3S)-3-({[(E)-2-(5-Chlorothien-2-yl)ethenyl]sulfonyl}amino)-2-oxopyrrolidin-1-yl]pyridin-3-yl}-N-methylbenzenesulfonamide] |
| < 10 | CN(c1ccccc1-c1ccc(N2CC[C@H](NS(=O)(=O)/C=C/c3ccc(Cl)s3)C2=O)nc1)S(C)(=O)=O [Example 30, (E)-2-(5-Chlorothien-2-yl)-N-[(3S)-1-(5-{2-[methyl(methylsulfonyl)amino]phenyl}pyridin-2-yl)-2-oxopyrrolidin-3yl]ethenesulfonamide] |
| < 200 | CC(C)Oc1ccccc1-c1ccc(N2CC[C@H](NS(=O)(=O)/C=C/c3ccc(Cl)s3)C2=O)nc1 [Example 31, (E)-2-(5-Chlorothien-2-yl)-N-{(3S)-1-[5-(2-isopropoxyphenyl)pyridin-2-yl]-2-oxopyrrolidin-3-yl}ethenesulfonamide] |
| < 1000 | CS(=O)(=O)c1ccccc1-c1ccc(N2CC[C@H](NS(=O)(=O)c3ccc(C#N)cc3)C2=O)c(F)c1 [Example 34] |
| < 10 | CS(=O)(=O)c1ccccc1-c1ccc(N2CC[C@H](NS(=O)(=O)c3cc4ccc(Cl)cc4o3)C2=O)c(F)c1 [Example 36, 6-Chloro-N-{(3S)-1-[3-fluoro-2′-(methylsulfonyl)-1,1′-biphenyl-4yl]-2-oxopyrrolidin-3-yl}-1-benzofuran-2-sulfonamide] |
| < 20 | CS(=O)(=O)c1ccccc1-c1ccc(N2CC[C@H](NS(=O)(=O)c3cc4ncc(Cl)cc4s3)C2=O)c(F)c1 [Example 37, 6-Chloro-N-{(3S)-1-[3-fluoro-2′-(methylsulfonyl)-1,1′-biphenyl-yl]-2-oxopyrrolidin-3-yl}thieno[3,2b]pyridine-2-sulfonamide] |
| < 10 | CS(=O)(=O)c1ccccc1-c1ccc(N2CC[C@H](NS(=O)(=O)c3cc4nc(Cl)ccc4s3)C2=O)c(F)c1 [Example 38, 5-Chloro-N-{(3S)-1-[3-fluoro-2′-(methylsulfonyl)-1,1′-biphenyl-4-yl]-2-oxopyrrolidin-3-yl}thieno[3,2-b]pyridine-2-sulfonamide] |
| < 10 | C/C(=C\S(=O)(=O)N[C@H]1CCN(c2ccc(-c3ccccc3S(C)(=O)=O)cc2F)C1=O)c1ccc(Cl)s1 [Example 39, (1E)-2-(5-Chlorothien-2-yl)-N-{(3S)-1-[3-fluoro-2′-(methylsulfonyl)-1,1′-biphenyl-4yl]-2-oxopyrrolidin-3-yl}prop-1-ene-1-sulfonamide] |
| < 10 | CC(C)(C)OC(=O)CN([C@H]1CCN(c2ccc(-c3ccccc3S(C)(=O)=O)cn2)C1=O)S(=O)(=O)/C=C/c1ccc(Cl)s1 [Example 40, tert-Butyl [{[(E)-2-(5-Chlorothien-2-yl)ethenyl]sulfonyl}((3S)-1-{5-[2-(methylsulfonyl)phenyl]pyridin-2-yl}-2-oxopyrrolidin-3-yl)amino]acetate] |
| < 10 | CS(=O)(=O)c1ccccc1-c1ccc(N2CC[C@H](N(CCN3CCOCC3)S(=O)(=O)/C=C/c3ccc(Cl)s3)C2=O)nc1 [Example 42, (E)-2-(5-Chlorothien-2-yl)-N-((3S)-1-{5-[2-(methylsulfonyl)Phenyl]pyridin-2-yl}-2-oxopyrrolidin-3-yl)-N-(2-morpholin-4-ylethyl)ethenesulfonamide Formate Salt (1:1)] |
| < 10 | CS(=O)(=O)c1ccccc1-c1ccc(N2CC[C@H](N(CC(N)=O)S(=O)(=O)/C=C/c3ccc(Cl)s3)C2=O)nc1 [Example 43, 2-[{[(E)-2-(5-Chlorothien-2-yl)ethenyl]sulfonyl}((3S)-1-{5-[2-(methylsulfonyl)phenyl]pyridin-2-yl}-2-oxopyrrolidin-3-yl)amino]acetamide] |
| < 10 | CC(C)(C)OC(=O)N([C@H]1CCN(c2ccc(-c3ccccc3S(C)(=O)=O)cc2F)C1=O)S(=O)(=O)/C=C/c1ccc(Cl)s1 [Example 44, tert-Butyl [(E)-2-(5-chlorothien-2-yl)ethenyl]sulfonly{(3S)-1-[3-fluoro-2′-(methylsulfonyl)-1,1′-biphenyl-4yl]-2-oxopyrrolidin-3-yl}carbamate] |
| < 10 | CS(=O)(=O)c1ccccc1-c1ccc(N2CC[C@H](N(CCN3CCOCC3)S(=O)(=O)/C=C/c3ccc(Cl)s3)C2=O)c(F)c1 [Example 45, (E)-2-(5-Chlorothien-2-yl)-N-{(3S)-1-[3-fluoro-2′-(methylsulfonyl)-1,1′-biphenyl-4-yl]-2-oxopyrrolidin-3-yl}-N-(2-morpholin-4-ylethyl)ethenesulfonamide] |
| < 10 | CS(=O)(=O)c1ccccc1-c1ccc(N2CC[C@H](N(CC(N)=O)S(=O)(=O)/C=C/c3ccc(Cl)s3)C2=O)c(F)c1 [Example 46] |
